Test system: HT-29 cells
Test: HT29 Cells 0FBS Assay In Vitro (TNF-α/SMAC mimetic/zVAD-FMK induced necroptosis, CellTiter-Glo cell viability)
Format: cell-based
Conditions: Homo sapiens; HT-29 cells, FBS free medium, TNF-α (10 ng/ml), SMAC mimetic (6 uM), zVAD-FMK (10 μM), 20 hours; geometric mean EC50; read-out: Cell activity (EC50) of Compounds 117-281
Method in brief: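 Viability was measured by ATP luminescence (CellTiter-Glo) after 20 h at 37° C of compound exposure in 10-point, 1:3 dilutions. Necroptosis in FBS-free HT-29 cultures was driven by a TNF-α (10 ng/ml), SMAC mimetic (6 μM) and zVAD-FMK (10 μM) cocktail. EC50 values are geometric means from duplicate curves.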

| Structure (SMILES) | EC50 |
| --- | --- |
| Cc1nn(-c2cc(OC3CN(C(=O)N4N=CC[C@H]4c4cc(F)cc(F)c4)C3)c(F)cn2)c(C)c1CCO [compound 259, (S)-(5-(3,5-difluorophenyl)-4,5-dihydro-1H-pyrazol-1-yl)(3-((5-fluoro-2-(4-(2-hydroxyethyl)-3,5-dimethyl-1H-pyrazol-1-yl)pyridin-4-yl)oxy)azetidin-1-yl)methanone] | 0.1 to 100 nM |
| O=C(N1CC(Oc2cc(-c3ccn[nH]3)ncc2F)C1)N1N=CC[C@H]1c1cc(F)cc(F)c1 [compound 261, (S)-(5-(3,5-difluorophenyl)-4,5-dihydro-1H-pyrazol-1-yl)(3-((5-fluoro-2-(1H-pyrazol-5-yl)pyridin-4-yl)oxy)azetidin-1-yl)methanone] | 0.1 to 100 nM |
| Cc1c(-c2cc(OC3CN(C(=O)N4N=CC[C@H]4c4cc(F)cc(F)c4)C3)c(F)cn2)nn(C)c1C(=O)NC1COC1 [compound 262, (S)-3-(4-((1-(5-(3,5-difluorophenyl)-4,5-dihydro-1H-pyrazole-1-carbonyl)azetidin-3-yl)oxy)-5-fluoropyridin-2-yl)-1,4-dimethyl-N-(oxetan-3-yl)-1H-pyrazole-5-carboxamide] | 0.1 to 100 nM |
| Cc1c(-c2cc(OC3CN(C(=O)N4N=CC[C@H]4c4cc(F)cc(F)c4)C3)c(F)cn2)nn(C)c1C(=O)NC1CC(O)C1 (stereo partly drawn) [compound 263, (S)-3-(4-((1-(5-(3,5-difluorophenyl)-4,5-dihydro-1H-pyrazole-1-carbonyl)azetidin-3-yl)oxy)-5-fluoropyridin-2-yl)-N-(3-hydroxycyclobutyl)-1,4-dimethyl-1H-pyrazole-5-carboxamide] | 0.1 to 100 nM |
| Cc1c(-c2cc(OC3CN(C(=O)N4N=CC[C@H]4c4cc(F)cc(F)c4)C3)c(F)cn2)nn(C)c1C(=O)NC1CCC1 [compound 264, (S)—N-cyclobutyl-3-(4-((1-(5-(3,5-difluorophenyl)-4,5-dihydro-1H-pyrazole-1-carbonyl)azetidin-3-yl)oxy)-5-fluoropyridin-2-yl)-1,4-dimethyl-1H-pyrazole-5-carboxamide] | 0.1 to 100 nM |
| Cc1c(-c2cc(OC3CN(C(=O)N4N=CC[C@H]4c4cc(F)cc(F)c4)C3)c(F)cn2)nn(C)c1C(=O)NCCO [compound 265, (S)-3-(4-((1-(5-(3,5-difluorophenyl)-4,5-dihydro-1H-pyrazole-1-carbonyl)azetidin-3-yl)oxy)-5-fluoropyridin-2-yl)-N-(2-hydroxyethyl)-1,4-dimethyl-1H-pyrazole-5-carboxamide] | 0.1 to 100 nM |
| Cc1c(-c2cc(OC3CN(C(=O)N4N=CC[C@H]4c4cc(F)cc(F)c4)C3)c(F)cn2)nn(C)c1C1=NCCN1 [compound 266, (S)-(5-(3,5-difluorophenyl)-4,5-dihydro-1H-pyrazol-1-yl)(3-((2-(5-(4,5-dihydro-1H-imidazol-2-yl)-1,4-dimethyl-1H-pyrazol-3-yl)-5-fluoropyridin-4-yl)oxy)azetidin-1-yl)methanone] | 0.1 to 100 nM |
| Cc1c(-c2cc(OC3CN(C(=O)N4N=CC[C@H]4c4cc(F)cc(F)c4)C3)c(F)cn2)nn(C)c1C1=NCCN1C [compound 267, (S)-(5-(3,5-difluorophenyl)-4,5-dihydro-1H-pyrazol-1-yl)(3-((2-(1,4-dimethyl-5-(1-methyl-4,5-dihydro-1H-imidazol-2-yl)-1H-pyrazol-3-yl)-5-fluoropyridin-4-yl)oxy)azetidin-1-yl)methanone] | 100 to 1000 nM |
| Cc1noc(C)c1-c1cc(OC2CN(C(=O)N3N=CC[C@H]3c3cc(F)cc(F)c3)C2)c(F)cn1 [compound 268, (S)-(5-(3,5-difluorophenyl)-4,5-dihydro-1H-pyrazol-1-yl)(3-((2-(3,5-dimethylisoxazol-4-yl)-5-fluoropyridin-4-yl)oxy)azetidin-1-yl)methanone] | 0.1 to 100 nM |
| Cc1nn(-c2cc(OC3CN(C(=O)N4N=CC[C@H]4c4cc(F)cc(F)c4)C3)c(F)cn2)c(C)c1CN(C)C [compound 269, (S)-(5-(3,5-difluorophenyl)-4,5-dihydro-1H-pyrazol-1-yl)(3-((2-(4-((dimethylamino)methyl)-3,5-dimethyl-1H-pyrazol-1-yl)-5-fluoropyridin-4-yl)oxy)azetidin-1-yl)methanone] | 0.1 to 100 nM |
| Cc1nn(-c2cc(OC3CN(C(=O)N4N=CC[C@H]4c4cc(F)cc(F)c4)C3)c(F)cn2)c(C)c1N1CCCC1=O [compound 270, (S)-1-(1-(4-((1-(5-(3,5-difluorophenyl)-4,5-dihydro-1H-pyrazole-1-carbonyl)azetidin-3-yl)oxy)-5-fluoropyridin-2-yl)-3,5-dimethyl-1H-pyrazol-4-yl)pyrrolidin-2-one] | 0.1 to 100 nM |
| Cc1nn(-c2cc(OC3CN(C(=O)N4N=CC[C@H]4c4cc(F)cc(F)c4)C3)c(F)cn2)c(C)c1CC#N [compound 271, (S)-2-(1-(4-((1-(5-(3,5-difluorophenyl)-4,5-dihydro-1H-pyrazole-1-carbonyl)azetidin-3-yl)oxy)-5-fluoropyridin-2-yl)-3,5-dimethyl-1H-pyrazol-4-yl)acetonitrile] | 0.1 to 100 nM |
| Cc1nn(-c2cc(OC3CN(C(=O)N4N=CC[C@H]4c4cc(F)cc(F)c4)C3)c(F)cn2)cc1C(N)=O [compound 272, (S)-1-(4-((1-(5-(3,5-difluorophenyl)-4,5-dihydro-1H-pyrazole-1-carbonyl)azetidin-3-yl)oxy)-5-fluoropyridin-2-yl)-3-methyl-11H-pyrazole-4-carboxamide] | 0.1 to 100 nM |
| Cc1c(C(N)=O)cnn1-c1cc(OC2CN(C(=O)N3N=CC[C@H]3c3cc(F)cc(F)c3)C2)c(F)cn1 [compound 273, (S)-1-(4-((1-(5-(3,5-difluorophenyl)-4,5-dihydro-1H-pyrazole-1-carbonyl)azetidin-3-yl)oxy)-5-fluoropyridin-2-yl)-5-methyl-1H-pyrazole-4-carboxamide] | 0.1 to 100 nM |
| Cc1nn(-c2cc(OC3CN(C(=O)N4N=CC[C@H]4c4cc(F)cc(F)c4)C3)c(F)cn2)c(C)c1CN1CCCC1=O [compound 274, (S)-1-((1-(4-((1-(5-(3,5-difluorophenyl)-4,5-dihydro-1H-pyrazole-1-carbonyl)azetidin-3-yl)oxy)-5-fluoropyridin-2-yl)-3,5-dimethyl-11H-pyrazol-4-yl)methyl)pyrrolidin-2-one] | 0.1 to 100 nM |
| Cc1nn(-c2ccc(F)c(OC3CN(C(=O)N4N=CC[C@H]4c4cc(F)cc(F)c4)C3)n2)c(C)c1C(N)=O [compound 275] | 0.1 to 100 nM |
| Cc1nn(-c2ncc(F)c(OC3CN(C(=O)N4N=CC[C@H]4c4cc(F)cc(F)c4)C3)n2)c(C)c1C(N)=O [compound 276, (S)-1-(4-((1-(5-(3,5-difluorophenyl)-4,5-dihydro-1H-pyrazole-1-carbonyl)azetidin-3-yl)oxy)-5-fluoropyrimidin-2-yl)-3,5-dimethyl-1H-pyrazole-4-carboxamide] | 0.1 to 100 nM |
| [2H]C1(c2cc(F)cc(F)c2)CC=NN1C(=O)N1CC(Oc2cc(-n3nc(C)c(C(N)=O)c3C)ncc2F)C1 (stereo not shown) [compound 277, 1-(4-((1-(5-(3,5-difluorophenyl)-4,5-dihydro-1H-pyrazole-1-carbonyl-5-d)azetidin-3-yl)oxy)-5-fluoropyridin-2-yl)-3,5-dimethyl-1H-pyrazole-4-carboxamide] | 0.1 to 100 nM |
| Cc1nn(-c2cc(OC3CN(C(=O)N4N=CC[C@H]4c4cc(F)cc(F)c4)C3)c(F)cn2)c(C)c1CC(=O)O [compound 278, (S)-2-(1-(4-((1-(5-(3,5-difluorophenyl)-4,5-dihydro-1H-pyrazole-1-carbonyl)azetidin-3-yl)oxy)-5-fluoropyridin-2-yl)-3,5-dimethyl-1H-pyrazol-4-yl)acetic acid] | 100 to 1000 nM |
| Cc1nn(-c2cc(OC3CN(C(=O)N4N=CC[C@H]4c4cc(F)cc(F)c4)C3)c(F)cn2)c(C)c1C(C)(C)C(=O)O [compound 279, (S)-2-(1-(4-((1-(5-(3,5-difluorophenyl)-4,5-dihydro-1H-pyrazole-1-carbonyl)azetidin-3-yl)oxy)-5-fluoropyridin-2-yl)-3,5-dimethyl-1H-pyrazol-4-yl)-2-methylpropanoic acid] | 100 to 1000 nM |
| Cc1nn(-c2cc(OC3CN(C(=O)N4N=CC[C@H]4c4cc(F)cc(F)c4)C3)c(F)cn2)c(C)c1C(C)(C)C(N)=O [compound 280, (S)-2-(1-(4-((1-(5-(3,5-difluorophenyl)-4,5-dihydro-1H-pyrazole-1-carbonyl)azetidin-3-yl)oxy)-5-fluoropyridin-2-yl)-3,5-dimethyl-1H-pyrazol-4-yl)-2-methylpropanamide] | 0.1 to 100 nM |
| CCc1nn(-c2cc(OC3CN(C(=O)N4N=CC[C@H]4c4cc(F)cc(F)c4)C3)c(F)cn2)c(C)c1C(N)=O [compound 281, (S)-1-(4-((1-(5-(3,5-difluorophenyl)-4,5-dihydro-1H-pyrazole-1-carbonyl)azetidin-3-yl)oxy)-5-fluoropyridin-2-yl)-3-ethyl-5-methyl-1H-pyrazole-4-carboxamide] | 0.1 to 100 nM |
